Measurements: the supplement of paper PMC12370961

Legend:
Assay in all cases: differential drug sensitivity score (dDSS) relative to sarcoma reference cohort mean DSS (DSS units (0-100 scale difference)); higher = more selective sensitivity than reference sarcomas
Conditions in all cases: exposure time: 72 h; concentration range: 10-10000 nM
ES-ZH007 = system: ES-ZH007 (patient-derived Ewing sarcoma tumoroid)
Protocol: (§1)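 Drug response profiling of patient-derived Ewing sarcoma and CIC::DUX4 sarcoma tumoroid models (or cells tested directly after isolation from the tumor, 'direct'). The DSS is the normalised AUC (0-100); dDSS is the sample DSS minus the mean DSS of a 34-sarcoma reference cohort profiled in the same lab.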

CDS-ZH002 = system: CDS-ZH002 (patient-derived CIC-DUX4 sarcoma tumoroid)
Protocol: as §1

ES-ZH016 = system: ES-ZH016 (patient-derived Ewing sarcoma tumoroid)
Protocol: as §1

ES-ZH002 = system: ES-ZH002 (patient-derived Ewing sarcoma tumoroid)
Protocol: as §1

ES-ZH008 = system: ES-ZH008 (patient-derived Ewing sarcoma tumoroid)
Protocol: as §1

CDS-ZH001 = system: CDS-ZH001 (patient-derived CIC-DUX4 sarcoma tumoroid)
Protocol: as §1

ES-ZH001 = system: ES-ZH001 (patient-derived Ewing sarcoma tumoroid)
Protocol: as §1

CDS-ZH003 = system: CDS-ZH003 (patient-derived CIC-DUX4 sarcoma tumoroid)
Protocol: as §1

CDS-ZH001-2 = system: CDS-ZH001-2 (patient-derived CIC-DUX4 sarcoma tumoroid)
Protocol: as §1

ES-ZH009 = system: ES-ZH009 (patient-derived Ewing sarcoma tumoroid)
Protocol: as §1

ES-ZH004 = system: ES-ZH004 (patient-derived Ewing sarcoma tumoroid)
Protocol: as §1

CDS-ZH002 direct = system: CDS-ZH002 direct (CIC-DUX4 sarcoma cells right after isolation)
Protocol: as §1

ES-ZH016 direct = system: ES-ZH016 direct (Ewing sarcoma cells right after isolation)
Protocol: as §1

SMILES	differential drug sensitivity score (ES-ZH007)	differential drug sensitivity score (CDS-ZH002)	differential drug sensitivity score (ES-ZH016)	differential drug sensitivity score (ES-ZH002)	differential drug sensitivity score (ES-ZH008)	differential drug sensitivity score (CDS-ZH001)	differential drug sensitivity score (ES-ZH001)	differential drug sensitivity score (CDS-ZH003)	differential drug sensitivity score (CDS-ZH001-2)	differential drug sensitivity score (ES-ZH009)	differential drug sensitivity score (ES-ZH004)	differential drug sensitivity score (CDS-ZH002 direct)	differential drug sensitivity score (ES-ZH016 direct)
O=C(Nc1cnn2ccc(N3CCC[C@@H]3c3cc(F)ccc3F)nc12)N1CC[C@H](O)C1 [Larotrectinib]	-0.9	-0.9	-0.9	-0.9	-0.9	1.2	-0.9	8.8	-0.9	-0.9	-0.8	-0.9	-0.9
CC[C@@]1(O)C(=O)OCc2c1cc1n(c2=O)Cc2cc3c(CN(C)C)c(O)ccc3nc2-1 [Topotecan]	19.4	-2.7	19.6	20.1	10.8	5.3	19.4	8	3.4	15.8	16.4	-4.9	7.3
COc1cc([C@@H]2c3cc4c(cc3[C@@H](O[C@@H]3O[C@@H]5CO[C@@H](C)O[C@H]5[C@H](O)[C@H]3O)[C@H]3COC(=O)[C@H]23)OCO4)cc(OC)c1O [Etoposide]	6.1	-4.3	8.7	25.5	13.6	-1.6	10	-6.8	3.8	8.6	11.7	-7.3	7.2
C=CC(=O)N1CCC[C@@H](n2nc(-c3ccc(Oc4ccccc4)cc3)c3c(N)ncnc32)C1 [Ibrutinib]	-2.7	-2.7	-2.7	0.4	-2.2	-2.7	-2.1	-2.7	-2.7	-2.7	-2.5	-2.1	1.4
O=C(NCCCNc1nc(Nc2cccc(NC(=O)N3CCCC3)c2)ncc1I)c1cccs1 [BX-795]	0	-1.9	2.6	2.2	-2.2	-4.1	3.7	5.5	-2.6	1.1	-3.5	-2.6	5.1
COC1=CC(c2cc3ccccc3[nH]2)=N/C1=C\c1[nH]c(C)cc1C [Obatoclax]	7.5	-2.4	2.1	2.9	4	-3.8	-0.7	-3	-0.2	1.5	6.9	4.4	3.3
CC(=O)[C@]1(O)Cc2c(O)c3c(c(O)c2[C@@H](O[C@H]2C[C@H](N)[C@H](O)[C@H](C)O2)C1)C(=O)c1ccccc1C3=O [Idarubicin]	-9.5	0.5	11.8	19.4	6.4	-0.3	11.8	0.5	7	13.4	-2.2	1.8	7.3
O=c1cc(-c2cccc3c2Sc2ccccc2S3)oc(N2CCOCC2)c1	-1.3	-0.2	-1.3	-1.3	-1.3	0	-1.3	-1.3	2.9	-0.4	-1.3	3.7	13.8
Cn1nnc2c(C(N)=O)ncn2c1=O [Temozolomide]	-1.3	1.4	13.8	2.1	-1.3	3.6	3.2	7.1	3.5	7	-1.7	1.1	14.8
O=P1(NCCCl)OCCCN1CCCl (configuration not stated) [Ifosfamide]	-1	-1	-1	5.4	1.6	-1	0.6	-1	-1	-1	5.5	-1	-1
Cc1ccc(C(=O)Nc2cccc(C(F)(F)F)c2)cc1Nc1nc(-c2cccnc2)nc2c1cnn2C [BHG712]	-1.6	-1.6	-1.6	3.8	7.1	-1.6	-1.1	-1.6	-1.6	-1.6	0.6	-1.6	-1.6
C[C@H]1CNC(=O)c2cnn3ccc(nc23)N[C@H](C)c2cc(F)ccc2O1 [Repotrectinib]	-1.3	-0.4	2.1	5	10.8	-0.3	0.2	-1.4	6.2	1.8	2.9	0.2	7.7
Cc1ccc(C(=O)Nc2ccc(CN3CCN(C)CC3)c(C(F)(F)F)c2)cc1C#Cc1cnc2cccnn12 [Ponatinib]	-2.6	-3.6	-3.6	10	3.2	-6.2	5.6	-0.9	-3.9	0.2	0.5	-3.1	7.8
CC[C@]1(O)C[C@@H]2CN(CCc3c([nH]c4ccccc34)[C@@](C(=O)OC)(c3cc4c(cc3OC)N(C)[C@H]3[C@@](O)(C(=O)OC)[C@H](OC(C)=O)[C@]5(CC)C=CCN6CC[C@]43[C@@H]65)C2)C1 [Vinblastine]	13.2	13.2	16.2	22.2	12.7	9.1	22.3	-9.2	2.2	23.7	12.3	8.4	10.2
O=C(O)CNC(=O)c1c(O)c2ccccc2n(Cc2ccccc2)c1=O [IOX2]	-0.7	-1.3	-1.5	5.1	3.7	-1.5	3.2	3.7	-1.5	-1.5	0.7	1	-1.5
Cc1ccc2nc(NCCN)c3ncc(C)n3c2c1	1.4	1	3.7	3.8	-1.3	3	1.4	-1.9	4.2	1.8	-2.3	2.2	0.5
CC(C)(C)c1nc(-c2cccc(NS(=O)(=O)c3c(F)cccc3F)c2F)c(-c2ccnc(N)n2)s1 [Dabrafenib]	-1.1	-1.2	-1.2	7.7	0.8	-1.2	11.1	-1.2	-1.2	3.9	-0.7	-1.2	2.3
CCc1cnn2c(NCc3ccc[n+]([O-])c3)cc(N3CCCC[C@H]3CCO)nc12 [Dinaciclib]	9.6	12	12.2	11.7	6.6	14	9.8	14	11.5	13.8	9.8	12.8	11.6
Cc1nc(Nc2n[nH]c3c2CN(C(=O)N[C@H](CN(C)C)c2ccccc2)C3(C)C)c2sccc2n1	17.9	0	0.7	15.4	4.9	5.9	5.3	-5.2	5.3	12.7	9.2	3.6	-4.7
CC#CC(=O)N1CCC[C@H]1c1nc(-c2ccc(C(=O)Nc3ccccn3)cc2)c2c(N)nccn12 [Acalabrutinib]	-3.5	-2.9	-2.1	9.7	17.5	-3.5	5.7	1.4	-2.5	-3.5	11.2	-3.2	2.4
CN1CCC(COc2cnc(-c3cccc(Cn4nc(-c5cccc(C#N)c5)ccc4=O)c3)nc2)CC1 [Tepotinib]	-0.6	-5.4	-4.3	0.6	-4.7	-1.4	4.4	3.5	-2.5	9	-4.7	2.3	-4.5
CO[C@@H]1[C@H](N(C)C(=O)c2ccccc2)C[C@H]2O[C@]1(C)n1c3ccccc3c3c4c(c5c6ccccc6n2c5c31)C(=O)NC4 [Midostaurin]	-1.6	-4.2	3.1	3.4	5.8	-1.3	5.9	-0.3	2.2	7.9	-11	0.6	7.8
CC(=O)Nc1cccc(-n2c(=O)n(C3CC3)c(=O)c3c(Nc4ccc(I)cc4F)n(C)c(=O)c(C)c32)c1 [Trametinib]	-3.5	-3.5	-3.5	9.5	4.1	-3.5	3.2	3.2	-3.5	-3.5	1.5	-3.5	-3.5
CN(C)Cc1c(C(=O)NCCOc2ccc(C(=O)NO)cc2)oc2ccccc12 [Abexinostat]	4.9	0.1	4.3	3.9	9.6	-3.5	5.3	-11.2	4.2	10.5	3.2	-0.7	2.4
CCn1c(-c2nonc2N)nc2c(C#CC(C)(C)O)ncc(OC[C@H]3CCCNC3)c21	4.4	-9.5	1.1	13	15.5	5.1	0.5	-9.5	-9.5	5.5	10.8	-3.1	-1
CC(C)(C)c1cc(NC(=O)Nc2ccc(-c3cn4c(n3)sc3cc(OCCN5CCOCC5)ccc34)cc2)no1 [Quizartinib]	2.4	-2.9	-0.6	1.6	0.6	-2.8	-1.7	-3.2	13.2	3.6	-0.8	8.3	9.4
C[C@@H]1CN(C(=O)c2ccc(NC(=O)c3cc(O[C@H](C)c4c(Cl)ccc(F)c4Cl)c(N)nn3)cc2)C[C@H](C)N1 [Ensartinib]	4.2	-0.8	3.9	15.2	13.9	5	4.7	-1.2	5.2	-2.1	4.3	-1.9	3.7
CNC(=O)c1cc(Oc2ccc(NC(=O)Nc3ccc(Cl)c(C(F)(F)F)c3)cc2)ccn1 [Sorafenib]	-1.2	-1.2	-1.2	-1.2	-1.2	-0.5	-0.8	-1.8	-1	0.2	-1.2	-0.3	-1.2
CC(C)n1nc(-c2cc3cc(O)ccc3[nH]2)c2c(N)ncnc21 [Torkinib]	1.1	-1.3	2.2	13.7	8.1	4.4	2.1	-3.5	2.3	2	5.2	-0.9	-1.3
